Series [1] has as its system patients with BPH. As to the kind of experiment: Example 1: Sexual Function Questionnaire (SFQ), treatment naïve BPH patients, one intraprostatic injection, 12 months follow-up. The class given is in vivo, human. The settings on record: at 12 months. The procedure:
Three hundred and seventy (370) patients with BPH and with no prior history of any conventional approved medical or surgical treatment (“treatment naïve”) for BPH were given an intraprostatic injection of either (a) NX-1207 (2.5 mg) in phosphate buffered saline pH 7.2 (“PBS”) (n=213) or (b) PBS alone (n=157), under double-blind conditions by a urologist in an office setting under ultrasound guidance. These patients were followed for 12 months after treatment and their progress was monitored by urological investigations. Prior to their treatment each patient's sexual function was assessed by history and each patient completed a Sexual Function Questionnaire (“SFQ”) which scored from 0 to 12 points the degree to which the patient considered they had any problems with 1. lack of sex drive, 2. ability to get and keep an erection, and 3. problems with ejaculation, (Problem Assessment Scale of the Brief Male Sexual Function Inventory). A higher score indicates improvement with a better sexual functional self-assessment and less of a sexual problem; a lower score indicates worsening with more of a sexual problem. Many approved BPH medications and treatments are associated with lower scores. The SFQ was subsequently re-administered 12 months post-treatment. The difference from baseline score in the SFQ was compared in NX-1207 patients vs results in patients who received PBS alone.

Series [2] has as its system BPH patients with significant sexual problems. As to the kind of experiment: Example 2: SFQ, treatment naïve BPH patients with significant sexual problems (baseline SFQ<=3), one intraprostatic injection, 12 months. The series is classed as in vivo, human. The following applies: at 12 months. The procedure:
One hundred twenty three (123) BPH patients with significant sexual problems and with no prior history of any conventional approved medical or surgical treatment (“treatment naïve”) for BPH were given an intraprostatic injection of either (a) NX-1207 (2.5 mg) in phosphate buffered saline pH 7.2 (“PBS”) (n=75) or (b) PBS alone (n=48), under double-blind conditions by a urologist in an office setting under ultrasound guidance. These patients were followed for 12 months after treatment and their progress was monitored by urological investigations. Prior to their treatment each patient's sexual function was assessed by history and each patient completed a Sexual Function Questionnaire (“SFQ”) which scored from 0 to 12 points the degree to which the patient considered they had any problems with 1. lack of sex drive, 2. ability to get and keep an erection, and 3. problems with ejaculation; (Problem Assessment Scale of the Brief Male Sexual Function Inventory). A higher score indicates improvement with a better sexual functional self-assessment and less of a sexual problem; a lower score indicates worsening with more of a sexual problem. Many approved BPH medications and treatments, and conditions are associated with lower scores. All 123 BPH patients in this group had baseline pre-treatment SFQ scores<=3 points indicating significant sexual problems. […]

Series [3] concerns BPH patients. In words: Example 3: SFQ mean change, treatment naïve BPH patients, two NX-1207 injections vs PBS followed by one NX-1207 injection. The following applies: human, in vivo. The procedure:
One hundred and fifty six (156) BPH patients with no prior history of any conventional approved medical or surgical treatment (“treatment naïve”) for BPH were given an intraprostatic injection of either (a) NX-1207 (2.5 mg) in phosphate buffered saline pH 7.2 (“PBS”) (n=88) or (b) PBS alone (n=68), under double-blind conditions by a urologist in an office setting under ultrasound guidance. All patients were followed for a period of 12.6-51.1 months and then treated by a second open-label injection of NX-1207 (2.5 mg) in PBS. Prior to their treatment each patient's sexual function was assessed by history and each patient completed a Sexual Function Questionnaire (“SFQ”) which scored from 0 to 12 points the degree to which the patient considered they had any problems with 1. lack of sex drive, 2. ability to get and keep an erection, and 3. problems with ejaculation, (Problem Assessment Scale of the Brief Male Sexual Function Inventory). A higher score indicates improvement with a better sexual functional self-assessment and less of a sexual problem; a lower score indicates worsening with more of a sexual problem. Many approved BPH medications and treatments are associated with lower scores. The SFQ was subsequently re-administered 6 months post second treatment. […]

Series [4] has as its system BPH patients. As to the kind of experiment: Example 4: proportion with no worsening or improvement in SFQ, two NX-1207 injections vs PBS followed by one NX-1207 injection. On the set-up: species or system human. The settings on record: in vivo. The procedure:
One hundred and fifty (150) BPH patients with no prior history of any conventional approved medical or surgical treatment (“treatment naïve”) for BPH were given an intraprostatic injection of either (a) NX-1207 (2.5 mg) in phosphate buffered saline pH 7.2 (“PBS”) (n=83) or (b) PBS alone (n=67), under double-blind conditions by a urologist in an office setting under ultrasound guidance. All patients were followed for a period of 12.6-51.1 months and then treated by a second open-label injection of NX-1207 (2.5 mg) in PBS. Prior to their treatment each patient's sexual function was assessed by history and each patient completed a Sexual Function Questionnaire (“SFQ”) which scored from 0 to 12 points the degree to which the patient considered they had any problems with 1. lack of sex drive, 2. ability to get and keep an erection, and 3. problems with ejaculation, (Problem Assessment Scale of the Brief Male Sexual Function Inventory). A higher score indicates improvement with a better sexual functional self-assessment and less of a sexual problem; a lower score indicates worsening with more of a sexual problem. Many approved BPH medications and treatments are associated with lower scores. The SFQ was subsequently re-administered 6 months post second treatment. […]

Series [5] relates to BPH patients. As to the kind of experiment: Example 5: SFQ long-term mean change, treatment naive BPH patients, one injection, 12.6-51.1 months. The class given is in vivo, human. The following applies: at 12.6-51.1 months. The protocol: One hundred and fifty (150) BPH patients with no prior history of any conventional approved medical or surgical treatment (“treatment naive”) for BPH were given an intraprostatic injection of either (a) (2.5 mg) NX-1207 (2.5 mg) in phosphate buffered saline pH 7.2 (“PBS”) (n=83) or (b) PBS alone (n=67) under double-blind conditions by a urologist in an office setting under ultrasound guidance. These patients were followed for 12.6-51.1 months after treatment and their progress was monitored by urological investigations. Prior to their treatment each patient's sexual function was assessed by history and each patient completed a Sexual Function Questionnaire (“SFQ”) which scored from 0 to 12 points the degree to which the patient considered they had any problems with 1. lack of sex drive, 2. ability to get and keep an erection, and 3. problems with ejaculation; (Problem Assessment Scale of the Brief Male Sexual Function Inventory). A higher score indicates improvement with a better sexual functional self-assessment and less of a sexual problem; a lower score indicates worsening with more of a sexual problem. Many approved BPH medications and treatments are associated with lower scores. The SFQ was subsequently re-administered 12.6-51.1 months post-treatment.

In series [6] the test system is BPH patients. As to the kind of experiment: Example 6: proportion of treatment-naive BPH patients with SFQ<=3, NX-1207 vs PBS, 12.6-51.1 months. The series is classed as in vivo, human. The settings on record: at 12.6-51.1 months. The protocol:
Three hundred twenty four (324) BPH patients were given an intraprostatic injection of either (a) NX-1207 (2.5 mg) in phosphate buffered saline pH 7.2 (“PBS”) (n=189) or (b) PBS alone (n=135), under double-blind conditions by a urologist in an office setting under ultrasound guidance. These patients were followed for 12.6-51.1 months after treatment and their progress was monitored by urological investigations. Prior to their treatment each patient's sexual function was assessed by history and each patient completed a Sexual Function Questionnaire (“SFQ”) which scored from 0 to 12 points the degree to which the patient considered they had any problems with 1. lack of sex drive, 2. ability to get and keep an erection, and 3. problems with ejaculation; (Problem Assessment Scale of the Brief Male Sexual Function Inventory). A higher score indicates improvement with a better sexual functional self-assessment and less of a sexual problem; a lower score indicates worsening with more of a sexual problem. Many approved BPH medications and treatments are associated with lower scores. Eighty nine (89) BPH patients in this group had baseline pre-treatment SFQ scores<=3 points indicating significant sexual problems. The SFQ was subsequently re-administered 12.6-51.1 months post-treatment. […]

The test system of series [7] is BPH patients. As to the kind of experiment: Example 7: proportion of BPH patients with SFQ<=3, NX-1207 in treatment naive vs previously treated patients. The class given is in vivo, human. The settings on record: at 12.6-51.1 months. The protocol:
Three hundred and twenty four (324) BPH patients were given an intraprostatic injection of either (a) NX-1207 (2.5 mg) in phosphate buffered saline pH 7.2 (“PBS”) (n=189) or (b) PBS alone (n=135), under double-blind conditions by a urologist in an office setting under ultrasound guidance. These patients were followed for 12.6-51.1 months after treatment and their progress was monitored by urological investigations. Prior to their treatment each patient's sexual function was assessed by history and each patient completed a Sexual Function Questionnaire (“SFQ”) which scored from 0 to 12 points the degree to which the patient considered they had any problems with 1. lack of sex drive, 2. ability to get and keep an erection, and 3. problems with ejaculation; (Problem Assessment Scale of the Brief Male Sexual Function Inventory). A higher score indicates improvement with a better sexual functional self-assessment and less of a sexual problem; a lower score indicates worsening with more of a sexual problem. Many approved BPH medications and treatments are associated with lower scores. Eighty nine (89) BPH patients in this group had baseline pre-treatment SFQ scores<=3 points indicating significant sexual problems. The SFQ was subsequently re-administered 12.6-51.1 months post-treatment. […]

Series [8] relates to prostate gland. The settings on record: human, in vivo; cited from earlier work.

Peptide text beside a SMILES is read from it.

Consider `CC[C@H](C)[C@H](N)C(=O)N[C@@H](CC(=O)O)C(=O)N[C@@H](CCC(N)=O)C(=O)N[C@@H](CCC(N)=O)C(=O)N[C@H](C(=O)N[C@@H](CC(C)C)C(=O)N[C@@H](CO)C(=O)N[C@@H](CCCNC(=N)N)C(=O)N[C@H](C(=O)N[C@@H](CCCCN)C(=O)N[C@@H](CC(C)C)C(=O)N[C@@H](CCC(=O)O)C(=O)N[C@H](C(=O)N[C@@H](CCCCN)C(=O)N[C@@H](CCCNC(=N)N)C(=O)N[C@@H](CS)C(=O)N[C@@H](CC(C)C)C(=O)O)[C@@H](C)CC)[C@@H](C)CC)C(C)C` [SEQ ID NO: 66, IDQQVLSRIKLEIKRCL] (H-IDQQVLSRIKLEIKRCL-OH), for which the “sexual adverse events attributable to NX-1207” value in series [1], in series [2], in series [3], in series [4], in series [5] and in series [6] was “no significant incidence of sexual adverse events” throughout. Also, the “sexual adverse events attributable to NX-1207” value in series [7] is given as “no incidence of significant sexual adverse events”. In series [8], the safety profile result is given as “excellent safety profile”.

Values taken from patent US10335453B2, “Compositions and methods for improving sexual function” (Nymox Corporation, priority 2017, dated 2019).
